From patent US8569292B2, “Cyclic inhibitors of 11β-hydroxysteroid dehydrogenase 1” (Vitae Pharmaceuticals, Inc., priority 2008, dated 2013)

Assays:
[1] = molecular target: T1, 11β-HSD1 (Homo sapiens, UniProt P28845); assay: biochemical; settings: for inhibition at 0.1 µM: read-out: Average % inhibition at 100 nM
[2] = molecular target: T1, 11β-HSD1; assay: Biological Test Example 4: microsomal 11β-HSD1 in the presence of 50% human plasma; settings: for Shift: IC50 in Test Example 4 divided by IC50 in Test Example 1
[3] = molecular target: T2, CYP2C9 (Homo sapiens, UniProt P11712); assay: Biological Test Example 9: CYP2C9 inhibition (Invitrogen kit, fluorogenic OOMR); assay type: in vitro ADME
T2 construct: purchased Invitrogen 2859; host or cells: insect cells infected with baculovirus (microsomes)
T2 sequence (P11712 whole entry): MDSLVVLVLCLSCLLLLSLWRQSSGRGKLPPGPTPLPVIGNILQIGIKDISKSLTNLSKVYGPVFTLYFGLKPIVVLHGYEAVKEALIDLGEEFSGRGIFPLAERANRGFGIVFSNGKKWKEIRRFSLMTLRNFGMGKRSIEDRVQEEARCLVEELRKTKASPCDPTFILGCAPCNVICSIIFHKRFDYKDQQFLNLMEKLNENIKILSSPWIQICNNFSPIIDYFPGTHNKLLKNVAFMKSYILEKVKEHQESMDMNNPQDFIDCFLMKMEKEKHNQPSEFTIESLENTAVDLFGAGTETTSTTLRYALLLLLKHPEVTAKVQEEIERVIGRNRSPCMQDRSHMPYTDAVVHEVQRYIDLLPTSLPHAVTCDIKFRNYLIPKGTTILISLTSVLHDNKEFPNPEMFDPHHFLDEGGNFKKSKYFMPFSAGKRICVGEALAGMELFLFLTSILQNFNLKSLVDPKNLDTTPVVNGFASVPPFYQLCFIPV

[4] = Biological Test Example 1 IC50 (nM)
[5] = IC50 Range, Biological Test Example 1

T1 sequence (P28845 whole entry): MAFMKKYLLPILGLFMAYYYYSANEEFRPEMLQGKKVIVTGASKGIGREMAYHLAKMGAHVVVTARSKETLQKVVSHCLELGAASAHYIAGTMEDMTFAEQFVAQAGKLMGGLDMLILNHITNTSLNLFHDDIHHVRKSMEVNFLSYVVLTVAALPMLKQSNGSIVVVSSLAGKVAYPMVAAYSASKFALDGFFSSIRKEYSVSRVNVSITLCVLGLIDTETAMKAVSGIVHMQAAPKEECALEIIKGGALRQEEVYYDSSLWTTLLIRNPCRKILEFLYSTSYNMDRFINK

IC50 [1, 4]	IC50 [1, 5]	inhibition at 0.1 µM [1]	IC50 [2]	Shift [2]	IC50 [3]	SMILES
1.5 nM	< 100 nM	96.1%	60.7 nM	40.6	700 nM	C=CC[C@]1(c2ccc(F)cc2)CCN([C@@H](C)c2ccc(-c3cncc(F)c3)cc2)C(=O)O1 [EXAMPLE 51, (R)-6-allyl-6-(4-fluorophenyl)-3-((S)-1-(4-(5-fluoropyridin-3-yl)phenyl)ethyl)-1,3-oxazinan-2-one]
0.5 nM	< 100 nM	100%	5.1 nM	9.9	10900 nM	C[C@@H](c1ccc(-c2ccccn2)cc1)N1CC[C@](CCCO)(c2ccc(F)cc2)OC1=O [EXAMPLE 59, (R)-6-(4-fluorophenyl)-6-(3-hydroxypropyl)-3-((S)-1-(4-(pyridin-2-yl)phenyl)ethyl)-1,3-oxazinan-2-one]
6.6 nM	< 100 nM	93.6%	11.1 nM	1.7	9100 nM	Cc1cc(-c2ccc([C@H](C)N3CC[C@](CC(C)(C)O)(c4ccc(F)cc4)OC3=O)cc2)cc(C)[n+]1[O-] [EXAMPLE 123, 4-(4-((S)-1-((S)-6-(4-fluorophenyl)-6-(2-hydroxy-2-methylpropyl)-2-oxo-1,3-oxazinan-3-yl)ethyl)phenyl)-2,6-dimethylpyridine 1-oxide]
3.2 nM	< 100 nM	93.6%	269 nM	83.8	17500 nM	Cc1cc(-c2ccc([C@H](C)N3CC[C@](C)(c4ccc(F)cc4)OC3=O)cc2)ccn1 (single isomer, unassigned) [EXAMPLE 107.2]
1 nM	< 100 nM	95.1%	10.3 nM	10.2	4400 nM	Cc1cc(-c2ccc([C@H](C)N3CC[C@](CC4(O)CC4)(c4ccc(F)cc4)OC3=O)cc2)ccn1 [EXAMPLE 115, (S)-6-(4-fluorophenyl)-6-((1-hydroxycyclopropyl)methyl)-3-((S)-1-(4-(2-methylpyridin-4-yl)phenyl)ethyl)-1,3-oxazinan-2-one]
0.6 nM	< 100 nM	98.9%	6.2 nM	10.5	13300 nM	C[C@@H](c1ccc(-c2ccccn2)cc1)N1CC[C@](CCCNS(C)(=O)=O)(c2ccccc2)OC1=O [EXAMPLE 89, N-(3-((R)-2-oxo-6-phenyl-3-((S)-1-(4-(pyridin-2-yl)phenyl)ethyl)-1,3-oxazinan-6-yl)propyl)methanesulfonamide]
0.7 nM	< 100 nM	101%	6.7 nM	9.9	3800 nM	COc1ccc(-c2ccc([C@H](C)N3CC[C@](CCCNS(C)(=O)=O)(c4ccc(F)cc4)OC3=O)cc2)cn1 [EXAMPLE 67, N-(3-((R)-6-(4-fluorophenyl)-3-((S)-1-(4-(6-methoxypyridin-3-yl)phenyl)ethyl)-2-oxo-1,3-oxazinan-6-yl)propyl)methanesulfonamide]
0.5 nM	< 100 nM	97.9%	22.6 nM	44.2	10900 nM	Cc1cccc(-c2ccc([C@H](C)N3CC[C@](CCCO)(c4ccc(F)cc4)OC3=O)cc2)n1 [EXAMPLE 62, (R)-6-(4-fluorophenyl)-6-(3-hydroxypropyl)-3-((S)-1-(4-(6-methylpyridin-2-yl)phenyl)ethyl)-1,3-oxazinan-2-one]
1 nM	< 100 nM	102%	6.6 nM	6.3	> 30000 nM	Cc1ccc(-c2ccc([C@H](C)N3CC[C@](CCCO)(c4ccc(F)cc4)OC3=O)cc2)c(C)n1 [EXAMPLE 141, (R)-3-((S)-1-(4-(2,6-dimethylpyridin-3-yl)phenyl)ethyl)-6-(4-fluorophenyl)-6-(3-hydroxypropyl)-1,3-oxazinan-2-one]
0.6 nM	< 100 nM	98.3%	6.3 nM	9.8	2300 nM	C[C@@H](c1ccc(-c2cncc(Cl)c2)cc1)N1CC[C@](CCCO)(c2ccc(F)cc2)OC1=O [EXAMPLE 69, (R)-3-((S)-1-(4-(5-chloropyridin-3-yl)phenyl)ethyl)-6-(4-fluoroPhenyl)-6-(3-hydroxypropyl)-1,3-oxazinan-2-one]
2.5 nM	< 100 nM	94.3%	6.1 nM	2.5	8500 nM	C[C@@H](c1ccc(-c2cccnc2)cc1)N1CC[C@](CCO)(c2ccc(F)cc2)OC1=O [EXAMPLE 37, (S)-6-(4-fluorophenyl)-6-(2-hydroxyethyl)-3-((S)-1-(4-(pyridin-3-yl)phenyl)ethyl)-1,3-oxazinan-2-one]
4.9 nM	< 100 nM	93.3%	4.3 nM	0.9	5300 nM	C[C@@H](c1ccc(-c2ccc(C(C)(C)O)nn2)cc1)N1CC[C@](CC(C)(C)O)(c2ccccc2)OC1=O [EXAMPLE 7, (S)-6-(2-hydroxy-2-methylpropyl)-3-((S)-1-(4-(6-(2-hydroxypropan-2-yl)pyridazin-3-yl)phenyl)ethyl)-6-phenyl-1,3-oxazinan-2-one]
1.3 nM	< 100 nM	98.7%	18.5 nM	14.6	6600 nM	COc1cncc(-c2ccc([C@H](C)N3CC[C@](CCCO)(c4ccc(F)cc4)OC3=O)cc2)c1 [EXAMPLE 53, (R)-6-(4-fluorophenyl)-6-(3-hydroxypropyl)-3-((S)-1-(4-(5-methoxypyridin-3-yl)phenyl)ethyl)-1,3-oxazinan-2-one]
6.7 nM	< 100 nM	93.1%	24.2 nM	3.6	4700 nM	Cc1cc(-c2ccc([C@H](C)N3CC[C@](CCCO)(c4ccccc4)OC3=O)cc2)cc(C)[n+]1[O-] [EXAMPLE 120, 4-(4-((S)-1-((R)-6-(3-hydroxypropyl)-2-oxo-6-phenyl-1,3-oxazinan-3-yl)ethyl)phenyl)-2,6-dimethylpyridine 1-oxide]
6.1 nM	< 100 nM	93.7%	69.8 nM	11.5	> 30000 nM	Cc1cc(-c2ccc([C@H](C)N3CC[C@](CCCO)(c4ccc(F)cc4)OC3=O)cc2)nc(C)n1 [EXAMPLE 127, (R)-3-((S)-1-(4-(2,6-dimethylpyrimidin-4-yl)phenyl)ethyl)-6-(4-fluorophenyl)-6-(3-hydroxypropyl)-1,3-oxazinan-2-one]
0.9 nM	< 100 nM	98.7%	7.9 nM		4600 nM	COc1cc(-c2ccc([C@H](C)N3CC[C@](CCCO)(c4ccc(F)cc4)OC3=O)cc2)ccn1 [EXAMPLE 147, (R)-6-(4-fluorophenyl)-6-(3-hydroxypropyl)-3-((S)-1-(4-(2-methoxypyridin-4-yl)phenyl)ethyl)-1,3-oxazinan-2-one]
0.8 nM	< 100 nM	99.6%	6.2 nM	8.2	4700 nM	COc1ccc(-c2ccc([C@H](C)N3CC[C@](CC(C)(C)O)(c4ccc(F)cc4)OC3=O)cc2)cn1 [EXAMPLE 64, (S)-6-(4-fluorophenyl)-6-(2-hydroxy-2-methylpropyl)-3-((S)-1-(4-(6-methoxypyridin-3-yl)phenyl)ethyl)-1,3-oxazinan-2-one]
0.8 nM	< 100 nM	97.4%	7.2 nM		16900 nM	C[C@@H](c1ccc(-c2ccccn2)cc1)N1CC[C@](CC(C)(C)O)(c2ccc(F)cc2)OC1=O [EXAMPLE 58, (S)-6-(4-fluorophenyl)-6-(2-hydroxy-2-methylpropyl)-3-((S)-1-(4-(pyridin-2-yl)phenyl)ethyl)-1,3-oxazinan-2-one]
1 nM	< 100 nM	97.1%	39.4 nM	38.4	400 nM	C=CC[C@]1(c2ccc(F)cc2)CCN([C@@H](C)c2ccc(-c3cncc(Cl)c3)cc2)C(=O)O1 [EXAMPLE 54, (R)-6-allyl-3-((S)-1-(4-(5-chloropyridin-3-yl)phenyl)ethyl)-6-(4-fluorophenyl)-1,3-oxazinan-2-one]
1.4 nM	< 100 nM	90.2%	13.7 nM		17300 nM	C[C@@H](c1ccc(-c2cccnc2)cc1)N1CC[C@](CCCNS(C)(=O)=O)(c2ccccc2)OC1=O [EXAMPLE 91, N-(3-((R)-2-oxo-6-phenyl-3-((S)-1-(4-(pyridin-3-yl)phenyl)ethyl)-1,3-oxazinan-6-yl)propyl)methanesulfonamide]
0.7 nM	< 100 nM	99.6%	3.7 nM	5.1	5300 nM	Cc1cc(-c2ccc([C@H](C)N3CC[C@](CC(C)(C)C#N)(c4ccc(F)cc4)OC3=O)cc2)ccn1 [EXAMPLE 116, 3-((R)-6-(4-fluorophenyl)-3-((S)-1-(4-(2-methylpyridin-4-yl)phenyl)ethyl)-2-oxo-1,3-oxazinan-6-yl)-2,2-dimethylpropanenitrile]
0.4 nM	< 100 nM	99%	3.8 nM	8.8	4000 nM	COc1ccc(-c2ccc([C@H](C)N3CC[C@](CCCO)(c4ccc(F)cc4)OC3=O)cc2)cn1 [EXAMPLE 65, (R)-6-(4-fluorophenyl)-6-(3-hydroxypropyl)-3-((S)-1-(4-(6-methoxypyridin-3-yl)phenyl)ethyl)-1,3-oxazinan-2-one]
